This is an account of results in paper PMC12345137 (mBio, 2025).

Entries after “also recorded” stand apart in the source; their conditions may differ. Read-outs that look alike come from different tables or passages of the source. Positions of bridges follow the written chain, without caps; N, C: chain ends. Residues, ends and D or L forms follow the SMILES beside them.

For orientation: IC50 means the concentration needed to halve the response being measured.

In one assay the target is S. epidermidis agr-II (Staphylococcus epidermidis, UniProt Q8VSX5). The assay can be described thus: cell-based. The settings on record: for QS interaction in words (inhibition / activation), S. epidermidis agr-II: fluorescent reporter strain, peptides tested at 1000, 50, 2.5, 0.125 nM or in dose-response. It counts as cell-based. In a few lines:
(§1)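 Reporter strains, with YFP (S. aureus) or sGFP (S. epidermidis) under agr P3, were diluted 1:100 from overnight TSB cultures with antibiotic and exposed to peptides for 22–24 h at 37°C, shaking. Background-subtracted fluorescence was normalized to OD600 and expressed relative to peptide-free control wells; IC50 came from variable-slope non-linear regression.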

In a further assay the target is S. epidermidis agr-III (Staphylococcus epidermidis, UniProt Q8VSX2). The assay can be described thus: cell-based. It counts as cell-based. As to conditions: for QS interaction in words (inhibition / activation), S. epidermidis agr-III: fluorescent reporter strain, peptides tested at 1000, 50, 2.5, 0.125 nM or in dose-response. The essentials:
as §1

In the next assay the test system is S. aureus (SA) agr-III. As to conditions: fluorescence, cited from earlier work.
The target of another assay is S. aureus agr-I (Staphylococcus aureus, UniProt O07911). The assay can be described thus: Fluorescence reporter assay for agr interference, screening and IC50 (AH1677, P3-YFP). It counts as cell-based. Here is the method: Peptides were evaluated for the ability to interfere with agr-mediated quorum sensing in S. aureus (AH1677, AH430, AH1747, and AH1872 for agr-I–IV, respectively) ([40]) using reporter strains expressing yellow fluorescent protein (YFP) upon agr activation. Interference with agr-mediated quorum sensing in S. epidermidis (AH3408, AH3623, and AH3409 for agr-I–III, respectively) ([45]), and S. lugdunensis (AH4031 for agr-I) ([37]) was evaluated using reporter strains expressing superfolder green fluorescent protein (sGFP) upon agr activation. Overnight cultures of the reporter strains were grown in TSB medium containing chloramphenicol (CAM, 10 μg/mL for S. aureus) or erythromycin (ERM, 10 μg/mL of S. epidermidis and S. lugdunensis) and diluted 1:100 in fresh TSB medium containing the same antibiotic. Assays were performed in sterile black 96-well plates with a clear bottom. […] DMSO stock solutions of peptides (1 mM) were diluted in TSB media and added (15 μL) in technical triplicate to the 96-well plate, followed by diluted bacterial overnight cultures (135 μL). […] Wells containing 150 μL TSB medium were used to measure background fluorescence. The 96-well plates were incubated in a humidified incubator at 37°C shaking at 1,000 rpm for 22–24 h and fluorescence (for GFP: excitation 479 nm, emission 520 nm; for YFP: excitation 500 nm, emission 541 nm; automatic gain), and OD600 values were subsequently measured using a plate reader. Background fluorescence was subtracted from all wells and further normalized to the corresponding OD600 value of the respective wells. The average fluorescence of control wells was used as a relative measure for 100% activation of the agr-circuit, and bar graphs were generated using GraphPad Prism 10.4 software. All assays were performed in at least a biological duplicate.
Overnight cultures of the reporter strains were grown in TSB medium containing chloramphenicol (CAM, 10 μg/mL for S. aureus) or erythromycin (ERM, 10 μg/mL of S. epidermidis and S. lugdunensis) and diluted 1:100 in fresh TSB medium containing the same antibiotic. Assays were performed in sterile black 96-well plates with clear bottoms. Peptide solutions (15 μL) in 1:5 serial dilutions from DMSO stock solutions (1 mM) in TSB medium were added to the 96-well plate in technical duplicate followed by diluted bacterial overnight cultures (135 μL). […] Wells containing 150 μL TSB medium were used to measure background fluorescence. The 96-well plates were incubated in a humidified incubator at 37°C shaking at 1,000 rpm for 22–24 h and fluorescence (for GFP: excitation 479 nm, emission 520 nm; for YFP: excitation 500 nm, emission 541 nm; automatic gain), and OD600 values were subsequently measured using a plate reader. Background fluorescence was subtracted from all wells and further normalized to the corresponding OD600 value of the respective wells. The average fluorescence of control wells was used as a relative measure for 100% activation of the agr-circuit. Relative agr activity was plotted to obtain IC50 values by non-linear regression with variable slope using GraphPad Prism 10.4 software. All assays were performed in biological triplicate.
For orientation: A reporter such as luciferase makes a cellular process visible.

For another assay, the target named is S. aureus agr-IV (Staphylococcus aureus, UniProt Q309Z2). The assay can be described thus: cell-based. Type of assay: cell-based. The essentials:
as §1

Where [1] appears, read: fluorescent reporter strain, peptides tested at 1000, 50, 2.5, 0.125 nM or in dose-response.

S. epidermidis agr-II, sequence (Q8VSX5 entry or part of it): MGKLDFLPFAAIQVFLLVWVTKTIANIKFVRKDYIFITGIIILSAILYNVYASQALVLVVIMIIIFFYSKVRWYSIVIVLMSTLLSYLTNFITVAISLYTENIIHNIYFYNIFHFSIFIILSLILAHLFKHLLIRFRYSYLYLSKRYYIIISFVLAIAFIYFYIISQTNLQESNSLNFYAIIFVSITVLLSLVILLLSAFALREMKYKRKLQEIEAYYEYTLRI
S. aureus agr-I, sequence (O07911 entry or part of it): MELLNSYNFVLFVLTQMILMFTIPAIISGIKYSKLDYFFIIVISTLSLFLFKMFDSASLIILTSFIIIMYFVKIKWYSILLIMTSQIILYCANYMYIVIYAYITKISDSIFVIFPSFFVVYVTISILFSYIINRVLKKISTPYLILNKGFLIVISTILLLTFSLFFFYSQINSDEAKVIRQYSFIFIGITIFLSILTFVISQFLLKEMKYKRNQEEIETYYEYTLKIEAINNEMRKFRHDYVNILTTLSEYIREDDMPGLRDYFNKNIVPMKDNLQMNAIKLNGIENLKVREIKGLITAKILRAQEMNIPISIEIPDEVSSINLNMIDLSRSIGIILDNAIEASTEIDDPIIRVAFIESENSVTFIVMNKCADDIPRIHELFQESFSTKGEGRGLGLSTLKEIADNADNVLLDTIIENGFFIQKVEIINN
S. aureus agr-IV, sequence (Q309Z2 entry or part of it): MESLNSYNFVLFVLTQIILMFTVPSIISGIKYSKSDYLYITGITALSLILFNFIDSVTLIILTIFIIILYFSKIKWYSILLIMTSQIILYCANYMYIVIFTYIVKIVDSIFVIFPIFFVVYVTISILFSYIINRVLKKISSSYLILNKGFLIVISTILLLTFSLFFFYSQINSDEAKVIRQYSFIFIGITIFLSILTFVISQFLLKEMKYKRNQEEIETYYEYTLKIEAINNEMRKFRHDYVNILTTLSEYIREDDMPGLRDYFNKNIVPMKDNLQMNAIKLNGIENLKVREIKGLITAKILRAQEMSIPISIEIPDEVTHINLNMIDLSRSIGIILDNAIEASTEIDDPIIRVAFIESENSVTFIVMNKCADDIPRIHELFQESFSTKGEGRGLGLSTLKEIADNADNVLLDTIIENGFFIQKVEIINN
S. epidermidis agr-III, sequence (Q8VSX2 entry or part of it): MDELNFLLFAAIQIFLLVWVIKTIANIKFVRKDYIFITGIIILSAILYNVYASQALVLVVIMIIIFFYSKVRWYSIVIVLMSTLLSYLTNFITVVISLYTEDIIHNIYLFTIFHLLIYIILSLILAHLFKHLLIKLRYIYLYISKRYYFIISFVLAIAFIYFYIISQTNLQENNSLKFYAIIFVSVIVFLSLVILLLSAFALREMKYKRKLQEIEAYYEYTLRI

With `CC[C@H](C)[C@@H]1NC(=O)[C@H](Cc2ccccc2)NC(=O)[C@H](CC(=O)O)NC(=O)[C@@H](NC(=O)[C@@H](NC(=O)[C@H](CO)NC(=O)[C@@H](N)Cc2ccc(O)cc2)[C@@H](C)O)CSC(=O)[C@H](CCSC)NC1=O` [compound 1, S. aureus AIP-I] (H-YSTCDFIM; thioester 4-C), the values for the IC50 against S. epidermidis agr-II, against S. epidermidis agr-III and in the assay with S. aureus (SA) agr-III (ref (5)) were more than 1000 nM, more than 1000 nM and 0.53 nM, respectively.
In the case of `CC(C)C[C@@H]1NC(=O)[C@@H](NC(=O)[C@@H]2CCCN2C(=O)[C@H](CC(N)=O)NC(=O)[C@H](Cc2ccc(O)cc2)NC(=O)[C@@H](N)CCCCN)CSC(=O)[C@H](CC(C)C)NC(=O)[C@H](Cc2ccccc2)NC(=O)CNC1=O` [compound 32, S. simulans AIP-I] (H-KYNPCLGFL; thioester 5-C; N-terminus assumed), the IC50 against S. aureus agr-I was 0.34 ± 0.02 nM; on S. aureus agr-IV, 10 nM; against S. epidermidis agr-II it was 0.26 ± 0.01 nM; in the assay on S. aureus (SA) agr-III (ref (17)), 3.5 nM. Also, the “QS interaction in words (inhibition / activation), S. epidermidis agr-III” value on S. epidermidis agr-III is recorded as “activated; also recorded: activators”; at S. epidermidis agr-III (listed as S. simulans AIP-I), “activation”.
For `NCCCC[C@H](N)C(=O)N[C@@H](Cc1ccc(O)cc1)C(=O)N[C@@H](Cc1ccc(O)cc1)C(=O)N1CCC[C@H]1C(=O)N[C@H]1CSC(=O)[C@H](Cc2ccccc2)NC(=O)[C@H](Cc2ccc(O)cc2)NC(=O)CNC(=O)[C@H](Cc2c[nH]c3ccccc23)NC1=O` [compound 33, S. simulans AIP-II] (H-KYYPCWGYF; thioester 5-C), the IC50 against S. aureus agr-I was 0.45 nM; at S. aureus agr-IV, 31 ± 7 nM; at S. epidermidis agr-II it was 0.26 ± 0.08 nM; on S. epidermidis agr-III, 0.6 ± 0.2 nM; in the assay on S. aureus (SA) agr-III (ref (17)), 11.5 nM. The “QS interaction in words (inhibition / activation), S. aureus agr-I” value at S. aureus agr-I (setting [1]) is “inhibited”. For the same compound, the “QS interaction in words (inhibition / activation), S. aureus agr-IV” value on S. aureus agr-IV (setting [1]) is “inhibited”. Moreover, the “QS interaction in words (inhibition / activation), S. epidermidis agr-II” value at S. epidermidis agr-II is recorded as “inhibited”. For the same compound, the “QS interaction in words (inhibition / activation), S. epidermidis agr-III” value at S. epidermidis agr-III is recorded as “inhibited; also recorded: sub-nanomolar inhibition”.
Turning to `NCCCC[C@H](N)C(=O)N[C@@H](Cc1ccc(O)cc1)C(=O)N[C@@H](CC(N)=O)C(=O)N1CCC[C@H]1C(=O)N[C@H]1CSC(=O)[C@H](Cc2ccccc2)NC(=O)[C@H](Cc2ccc(O)cc2)NC(=O)CNC(=O)[C@H](Cc2c[nH]c3ccccc23)NC1=O` [compound 34, S. simulans AIP-III] (H-KYNPCWGYF; thioester 5-C), the IC50 is 0.18 ± 0.03 nM against S. aureus agr-I, 34 nM on S. aureus agr-IV, 0.11 ± 0.02 nM against S. epidermidis agr-II and 3.2 nM with S. aureus (SA) agr-III (ref (17)). Moreover, the figures for the “QS interaction in words (inhibition / activation), S. epidermidis agr-III” value on S. epidermidis agr-III and at S. epidermidis agr-III (listed as S. simulans AIP-III) were “activated; also recorded: activators” and “activator”, respectively.
With “S. aureus AIP-III D4A [compound 57, reference compound]”, the “QS inhibition at […], S. aureus agr-IV” value on S. aureus agr-IV ([…] peptide, fluorescent reporter strain) is reported as more than 95%. The “QS interaction in words (inhibition / activation), S. epidermidis agr-II” value on S. epidermidis agr-II is reported as “weak interference”. Also, the “QS interaction in words (inhibition / activation), S. epidermidis agr-III” value at S. epidermidis agr-III was “weak interference”. The IC50 with S. aureus (SA) agr-III (ref (5)) is 0.051 nM.
